Results from ChEMBL document CHEMBL4028802, “DILIrank: the largest reference drug list ranked by the risk for developing drug-induced liver injury in humans” (Drug Discov Today, 2016).
Positions of bridges follow the written chain, without caps; N, C: chain ends. Non-standard residues stand in square brackets, D forms with d. Residues, ends and D or L forms follow the SMILES beside them. hArg = N=C(N)NCCCC[C@H](N)C(=O)O; Mpa = O=C(O)CCS

Legend:
Homo sapiens [1] = organism: Homo sapiens; assay: Liver toxicity in human assessed as induction of drug-induced liver injury by measuring severity class index
Homo sapiens [2] = organism: Homo sapiens; assay: Liver toxicity in human assessed as induction of drug-induced liver injury by measuring verified drug-induced liver injury concern status
For DILI severity class in this document: key of the grades not given here.

Row | SMILES | DILI_severity_class (Homo sapiens [1]) | DILI_Concern (Homo sapiens [2])
1 | COC(=O)[C@@H]1CC2=CC(=O)CC[C@]2(C)[C@@]23O[C@@H]2C[C@@]2(C)[C@@H](CC[C@@]24CCC(=O)O4)[C@H]13 [EPLERENONE] | 4 | Ambiguous-Dili-Concern
2 | CCCCC[C@H](O)/C=C/[C@@H]1[C@H]2C/C(=C/CCCC(=O)O)O[C@H]2C[C@H]1O [EPOPROSTENOL] | 7 | Ambiguous-Dili-Concern
3 | CCCCc1ncc(/C=C(\Cc2cccs2)C(=O)O)n1Cc1ccc(C(=O)O)cc1 [EPROSARTAN] | 3 | Ambiguous-Dili-Concern
4 | N=C(N)NCCCC[C@@H]1NC(=O)CCSSC[C@@H](C(N)=O)NC(=O)[C@@H]2CCCN2C(=O)[C@H](Cc2c[nH]c3ccccc23)NC(=O)[C@H](CC(=O)O)NC(=O)CNC1=O [EPTIFIBATIDE] ([Mpa][hArg]GDWPC-NH2; disulfide 1-7) | 0 | No-Dili-Concern
5 | C=C1CC[C@H](O)C/C1=C/C=C1\CCC[C@]2(C)[C@@H]([C@H](C)/C=C/[C@H](C)C(C)C)CC[C@@H]12 [ERGOCALCIFEROL] | 0 | No-Dili-Concern
6 | C#Cc1cccc(Nc2ncnc3cc(OCCOC)c(OCCOC)cc23)c1 [ERLOTINIB] | 8 | Most-Dili-Concern
7 | CC[C@H]1OC(=O)[C@H](C)[C@@H](O[C@H]2C[C@@](C)(OC)[C@@H](O)[C@H](C)O2)[C@H](C)[C@@H](O[C@@H]2O[C@H](C)C[C@H](N(C)C)[C@H]2O)[C@](C)(O)C[C@@H](C)C(=O)[C@H](C)[C@@H](O)[C@]1(C)O [ERYTHROMYCIN] | 5 | Most-Dili-Concern
8 | CN(C)CCC[C@@]1(c2ccc(F)cc2)OCc2cc(C#N)ccc21 [ESCITALOPRAM] | 7 | Less-Dili-Concern
9 | COC(=O)CCc1ccc(OCC(O)CNC(C)C)cc1 (stereo not given) [ESMOLOL] | 0 | No-Dili-Concern
10 | Clc1ccc2c(c1)C(c1ccccc1)=NCc1nncn1-2 [ESTAZOLAM] | 0 | No-Dili-Concern
11 | C[C@]12CC[C@@H]3c4ccc(O)cc4CC[C@H]3[C@@H]1CC[C@@H]2O [ESTRADIOL] | 2 | Less-Dili-Concern
12 | C[C@]12CC[C@@H]3c4ccc(OC(=O)N(CCCl)CCCl)cc4CC[C@H]3[C@@H]1CC[C@@H]2O [ESTRAMUSTINE] | 4 | Most-Dili-Concern
13 | C[C@]12CC[C@@H]3c4ccc(O)cc4CC[C@H]3[C@@H]1CCC2=O [ESTRONE] | 2 | Ambiguous-Dili-Concern
14 | C1CNCCN1.C[C@]12CC[C@@H]3c4ccc(OS(=O)(=O)O)cc4CC[C@H]3[C@@H]1CCC2=O [ESTROPIPATE] | 2 | Ambiguous-Dili-Concern
15 | CN1CCN(C(=O)O[C@H]2c3nccnc3C(=O)N2c2ccc(Cl)cn2)CC1 [ESZOPICLONE] | 3 | Ambiguous-Dili-Concern
16 | C=C(CC)C(=O)c1ccc(OCC(=O)O)c(Cl)c1Cl [ETHACRYNIC ACID] | 5 | Ambiguous-Dili-Concern
17 | CC[C@@H](CO)NCCN[C@@H](CC)CO [ETHAMBUTOL] | 8 | Most-Dili-Concern
18 | CCCCCCCC/C=C\CCCCCCCC(=O)O.NCCO [ETHANOLAMINE OLEATE] | 0 | No-Dili-Concern
19 | CCc1cc(C(N)=S)ccn1 [ETHIONAMIDE] | 3 | Less-Dili-Concern
20 | CCC1(C)CC(=O)NC1=O (stereo not given) [ETHOSUXIMIDE] | 3 | Ambiguous-Dili-Concern
21 | CCN1C(=O)NC(c2ccccc2)C1=O (stereo not given) [ETHOTOIN] | 3 | Ambiguous-Dili-Concern
22 | CC(O)(P(=O)(O)O)P(=O)(O)O [ETIDRONIC ACID] | 0 | No-Dili-Concern
23 | CCc1cccc2c3c([nH]c12)C(CC)(CC(=O)O)OCC3 (stereo not given) [ETODOLAC] | 8 | Most-Dili-Concern
24 | CCOC(=O)c1cncn1[C@H](C)c1ccccc1 [ETOMIDATE] | 0 | No-Dili-Concern
25 | C#C[C@]1(O)CC[C@H]2[C@@H]3CCC4=CC(=O)CC[C@@H]4[C@H]3C(=C)C[C@@]21CC [ETONOGESTREL] | 5 | Ambiguous-Dili-Concern

Row | SMILES | DILI_severity_class (Homo sapiens [1]) | DILI_Concern (Homo sapiens [2])
26 | COc1cc([C@@H]2c3cc4c(cc3[C@@H](O[C@@H]3O[C@@H]5CO[C@@H](C)O[C@H]5[C@H](O)[C@H]3O)[C@H]3COC(=O)[C@H]23)OCO4)cc(OC)c1O [ETOPOSIDE] | 3 | Less-Dili-Concern
27 | Cc1cc(C#N)cc(C)c1Oc1nc(Nc2ccc(C#N)cc2)nc(N)c1Br [ETRAVIRINE] | 8 | Most-Dili-Concern
28 | CO[C@H]1C[C@@H]2CC[C@@H](C)[C@@](O)(O2)C(=O)C(=O)N2CCCC[C@H]2C(=O)O[C@H]([C@H](C)C[C@@H]2CC[C@@H](OCCO)[C@H](OC)C2)CC(=O)[C@H](C)/C=C(\C)[C@@H](O)[C@@H](OC)C(=O)[C@H](C)C[C@H](C)/C=C/C=C/C=C/1C [EVEROLIMUS] | 4 | Ambiguous-Dili-Concern
29 | C/C(=N\O)C(C)NCC(C)(C)CNC(C)/C(C)=N/O (stereo not given) [EXAMETAZIME] | 0 | No-Dili-Concern
30 | C=C1C[C@@H]2[C@H](CC[C@]3(C)C(=O)CC[C@@H]23)[C@@]2(C)C=CC(=O)C=C12 [EXEMESTANE] | 4 | Most-Dili-Concern
31 | O=C(c1cc(O)c(O)c(O)c1)c1ccc(O)c(O)c1O [EXIFONE] | 8 | Most-Dili-Concern
32 | O=C1[C@H](CC[C@H](O)c2ccc(F)cc2)[C@@H](c2ccc(O)cc2)N1c1ccc(F)cc1 [EZETIMIBE] | 3 | Less-Dili-Concern
33 | CN1CCC(Nc2ncc3ncnc(Nc4ccc(F)c(Cl)c4)c3n2)CC1 [FALNIDAMOL] | 8 | Most-Dili-Concern
34 | CC(=O)OCC(CCn1cnc2cnc(N)nc21)COC(C)=O [FAMCICLOVIR] | 3 | Ambiguous-Dili-Concern
35 | NC(N)=Nc1nc(CSCCC(N)=NS(N)(=O)=O)cs1 [FAMOTIDINE] | 3 | Less-Dili-Concern
36 | Cc1nc(-c2ccc(OCC(C)C)c(C#N)c2)sc1C(=O)O [FEBUXOSTAT] | 8 | Most-Dili-Concern
37 | NC(=O)OCC(COC(N)=O)c1ccccc1 [FELBAMATE] | 7 | Most-Dili-Concern
38 | CCOC(=O)C1=C(C)NC(C)=C(C(=O)OC)C1c1cccc(Cl)c1Cl (stereo not given) [FELODIPINE] | 3 | Less-Dili-Concern
39 | O=C(O)Cc1csc(-c2ccc(Cl)cc2)n1 [FENCLOZIC ACID] | 8 | Most-Dili-Concern
40 | CC(C)OC(=O)C(C)(C)Oc1ccc(C(=O)c2ccc(Cl)cc2)cc1 [FENOFIBRATE] | 3 | Less-Dili-Concern
41 | CC(C)(Oc1ccc(C(=O)c2ccc(Cl)cc2)cc1)C(=O)O [FENOFIBRIC ACID] | 2 | Ambiguous-Dili-Concern
42 | Oc1ccc(C2CNCCc3c2cc(O)c(O)c3Cl)cc1 (stereo not given) [FENOLDOPAM] | 0 | No-Dili-Concern
43 | CC(C(=O)O)c1cccc(Oc2ccccc2)c1 (stereo not given) [FENOPROFEN] | 8 | Most-Dili-Concern
44 | CC(C)C(=O)Oc1ccc(CO)cc1[C@H](CCN(C(C)C)C(C)C)c1ccccc1 [FESOTERODINE] | 0 | No-Dili-Concern
45 | CC(C)(C(=O)O)c1ccc(C(O)CCCN2CCC(C(O)(c3ccccc3)c3ccccc3)CC2)cc1 (stereo not given) [FEXOFENADINE] | 0 | No-Dili-Concern
46 | O=c1[nH]c(=O)n([C@@H]2O[C@H](CO)[C@@H](O)[C@@H]2F)cc1I [FIALURIDINE] | 8 | Most-Dili-Concern
47 | COc1cccc2c1[C@@H]1CN(CCCCn3c(=O)[nH]c4c(sc5ncc(-c6ccccc6)nc54)c3=O)C[C@@H]1CO2 [FIDUXOSIN] | 8 | Most-Dili-Concern
48 | CC(C)(C)NC(=O)[C@H]1CC[C@H]2[C@@H]3CC[C@H]4NC(=O)C=C[C@]4(C)[C@H]3CC[C@]12C [FINASTERIDE] | 0 | Less-Dili-Concern
49 | O=C(COc1ccc(Cl)cc1)N1CCN(Cc2ccc3c(c2)OCO3)CC1 [FIPEXIDE] | 8 | Most-Dili-Concern
50 | Cc1c(-c2ccccc2)oc2c(C(=O)OCCN3CCCCC3)cccc2c1=O [FLAVOXATE] | 0 | No-Dili-Concern
